Laboratory results as given in article PMC8672735, “Computational and experimental investigation of the effect of cation structure on the solubility of anionic flow battery active-materials” (Chemical Science, 2021).
Read-outs that look alike come from different tables or passages of the source.

Columns and labels:
[1] = in DMSO and MeCN at 0.01 M, 0.05 M, 0.1 M, 0.2 M, and 0.5 M; 25 °C
Description: The viscosity measurements were collected using the Cannon Instruments Semi-Micro Viscometer. Concentrations of 0.01 M– 0.55 M were used when collecting the viscosity data at ambient temperature (25 °C). The U-tube style viscometer allowed for the collection of kinematic viscosity in centiStokes (cSt) which was then converted to dynamic viscosity in centiPoise (cP) using the electrolyte density.

[2] = Experimental solubility of [Nxxxx]y[VBH] active materials (maximum concentration by UV-Vis spectroscopy); assay type: physicochemical; conditions: anhydrous, organic solvent or mixture, read-out: Experimental solubility (maximum concentration of VBH in the electrolyte)
From the text: To investigate the solubilities of VBH-based active materials, we synthesized the alkylammonium [VBH] compounds in their reduced (+4) and oxidized (+5) states ([Nxxxx]2[V(+4)BH] and [Nxxxx][V(+5)BH], where x = 1 (methyl), 2 (ethyl), 3 (n-propyl), 4 (n-butyl)) and measured their solubilities in tetrahydrofuran (THF), acetonitrile (MeCN), dimethyl sulfoxide (DMSO), and propylene carbonate (PC). […] This led us to explicitly explore the interplay between competing trends in solvation energy and lattice enthalpy, which was implied by our previous work,[5] using a combined computational and synthetic strategy.
UV-Vis spectra were collected using the Evolution 220 UV-visible spectrophotometer with a quartz cuvette of 1 cm path length. The molar extinction coefficients for oxidized and reduced species in all solvents except for DMSO were used as determined in our previous study.[5] Molar extinction coefficients for oxidized species in DMSO were determined from a calibration curve. Infrared spectra were collected on a Thermo Scientific Nicolet iS5 equipped with iD7ATR module and a diamond crystal. ^1H- and ^13C-NMRs were performed on Bruker AVANCE III HD 400 MHz High-Performance Digital NMR spectrometer operating at 400 MHz for ^1H NMR and 101 MHz for ^13C NMR. Data acquisition was performed on IconNMR 5.0.3, and spectra were processed in TopSpin 3.5 and Mnova. High-Resolution Mass Spectrometry (HRMS) was performed on a Waters ACQUITY UPLC Xevo QTOF high resolution mass spectrometer using electrospray ionization. X-ray crystallographic experiments were performed on a Bruker D8 Venture X-instrument, using Mo Kα radiation at 200 K. Data were corrected for absorption using SADABS. The structures were solved by direct methods. All non-hydrogen atoms were refined anisotropically by full matrix least-squares on F^2 and all hydrogen atoms except those on water were placed in calculated positions with appropriate riding parameters. Further refinement and molecular graphics were obtained using Bruker Suite of structural programs,[55] OLEX2,[56] and Mercury.[57]
Hydroxylamine hydrochloride (Alfa Aesar), sodium hydroxide (Acros organics), chloroacetic acid (BTC), zinc acetate dihydrate (Acros Organics), calcium chloride (VWR), tetramethylammonium fluoride tetrahydrate (Matrix Scientific), tetraethylammonium fluoride (BTC), triethylamine (Acros Organics), n-butylbromide (Alfa Aesar), n-propylbromide (BTC), ferrocenium hexafluorophosphate (Sigma Aldrich), and vanadyl (iv) acetylacetonate (BTC) were purchased from commercial sources and used as received. Information on the characterization of new materials and those that were reported previously, and were used for solubility studies herein, are provided below. Solvent used in solubility measurement were of anhydrous grade and purchased from Sigma Aldrich.

[3] = acetonitrile (MeCN), MeCN (ϵ = 37), +4 state, [Nxxxx]2[VBH]
[4] = acetonitrile (MeCN), MeCN (ϵ = 37), +5 state, [Nxxxx][VBH]
[5] = dimethyl sulfoxide (DMSO), DMSO (ϵ = 47), +4 state, [Nxxxx]2[VBH]
[6] = dimethyl sulfoxide (DMSO), DMSO (ϵ = 47), +5 state, [Nxxxx][VBH]
[7] = propylene carbonate (PC), PC (ϵ = 66), +4 state, [Nxxxx]2[VBH]
[8] = propylene carbonate (PC), PC (ϵ = 66), +5 state, [Nxxxx][VBH]

Row | SMILES | viscosity [1] | solubility [2, 3] | solubility [2, 4] | solubility [2, 5] | solubility [2, 6] | solubility [2, 7] | solubility [2, 8]
1 | CCCC[N+](CCCC)(CCCC)CCCC [[N4444]2[VBH]] | generally increases with solution concentration |  |  |  |  |  | 
2 | CCC[N+](C)(C)C [compound 1113] |  | 24 mM | 8 mM | 246 mM | 252 mM | 108 mM | 40 mM
3 | CCCC[N+](C)(C)C [compound 1114] |  | 76 mM | 7 mM | 624 mM | 225 mM | 377 mM | 33 mM
4 | CC[N+](CC)(CC)CC [compound 2222] |  |  | 64 mM |  | 804 mM |  | 215 mM
